In one data set the test system is A549. In words: In vitro cytotoxicity in human tumor lung carcinoma A-549 cell lines. The data set is classed as functional.
The next data set deals with MCF7. Briefly: In vitro cytotoxicity in human tumor breast carcinoma MCF-7 cell lines. The data set is classed as functional.
For a further data set, the system named is Malme-3M. Briefly: In vitro cytotoxicity in human tumor melanoma MALME-3M cell lines. The data set is classed as functional.
The subject of data set [1] is Mus musculus. In words: In vivo inhibitory activity against HT-29 colon cells at maximally tolerated dose(MTD) of 3 mg/kg in mice. The data set is classed as functional.
For data set [2], the system named is Mus musculus. Briefly: In vivo inhibitory activity against HT-29 colon cells at maximally tolerated dose(MTD) of 10 mg/kg in mice. The data set is classed as functional.
The subject of another data set is SK-MEL-5. In words: In vitro cytotoxicity in human tumor melanoma SK-MEL5c ell lines. The data set is classed as functional.
Data set [3] in a line: In vitro toxicity against ras transformed 3LL cell lines was determined. The data set is classed as cell-based. The following applies: ras transformed 3LL cells; read-out: LC50 (the source's name).
Data set [4] in a line: In vitro toxicity against ras transformed H/1.2-NRK cell lines was determined. The conditions noted are these: rat, ras transformed H/1.2-NRK cells; read-out: LC50 (the source's name).
The nature of data set [5]: In vitro toxicity against ras transformed K/1-NRK cell lines was determined. The conditions noted are these: rat, ras transformed K/1-NRK cells; read-out: LC50 (the source's name).
The nature of data set [6]: In vitro toxicity against ras transformed NRKE cell lines was determined. The data set is classed as cell-based. The following applies: rat, NRKE cells; read-out: LC50 (the source's name).
Data set [7] can be described thus: Total number of toxic deaths of mice to the total number of mice tested was determined at a dose of 10 mg/kg; 0/8. Details: dose 10 mg/kg. The following applies: mouse, in vivo. The data set is classed as ADME, organism-based.
Data set [8] can be described thus: Total number of toxic deaths of mice to the total number of mice tested was determined at a dose of 3 mg/kg; 0/8. The data set is classed as ADME, organism-based. Further details: dose 3 mg/kg. The conditions noted are these: mouse, in vivo.
Data set [9] can be described thus: (§1) Ratio of LC50(NRKE) to LC50(H/1.2-NRK) expressed as differential induces(DI) was determined. The data set is classed as functional.
The nature of data set [10]: (§2) Ratio of LC50(NRKE) to LC50(N/4.2-NRK ) expressed as differential induces(DI) was determined. The data set is classed as functional.
The nature of data set [11]: In vitro toxicity against ras transformed N/4.2-NRK cell lines was determined. The following applies: rat, ras transformed N/4.2-NRK cells; read-out: LC50 (the source's name).
For data set [12], the system named is Mus musculus. In words: In vivo inhibitory activity against HT-29 colon cells at maximally tolerated dose(MTD) of 33 mg/kg in mice. The data set is classed as functional.
A short description of data set [13]: Total number of toxic deaths of mice to the total number of mice tested was determined at a dose of 100 mg/kg; 1/8. Details: dose 100 mg/kg. The data set is classed as ADME, organism-based. The conditions noted are these: mouse, in vivo.
A short description of data set [14]: Total number of toxic deaths of mice to the total number of mice tested was determined at a dose of 33 mg/kg; 0/8. The data set is classed as ADME, organism-based. Further details: dose 33 mg/kg. The conditions noted are these: mouse, in vivo.
The nature of data set [15]: Ratio of LC50(NRKE) to LC50(K/1-NRK) expressed as differential induces(DI) was determined. The data set is classed as functional.
The nature of data set [16]: Ratio of LC50(NRKE) to LC50(3LL) expressed as differential induces(DI) was determined. The data set is classed as functional.
Data set [17] relates to Mus musculus. In words: In vivo inhibitory activity against HT-29 colon cells at maximally tolerated dose(MTD) of 100 mg/kg in mice. The data set is classed as functional.
The subject of a further data set is HT-29. Briefly: In vitro cytotoxicity in human tumor colon adenocarcinoma HT-29 cell lines. The data set is classed as functional.
Data set [18] concerns Mus musculus. In words: In vivo inhibitory activity against HT-29 colon cells at maximally tolerated dose(MTD) of 11 mg/kg in mice. The data set is classed as functional.
Data set [19] in a line: Total number of toxic deaths of mice to the total number of mice tested was determined at a dose of 11 mg/kg; 0/8. The conditions noted are these: mouse, in vivo. Further details: dose 11 mg/kg. The data set is classed as ADME, organism-based.
Data set [20] can be described thus: as §1. The data set is classed as ADME. The following applies: rat, NRKE cells and H/1.2-NRK cells.
Data set [21] can be described thus: as §2. The data set is classed as ADME. The following applies: rat, NRKE cells and N/4.2-NRK cells.

Usually inhibition in vivo stands for the share of the control response that was lost under treatment. For the compound `C=C(CN1COC2CCC(C(C)(C)C)CC21)S(C)(=O)=O` (stereo not given), the ED50 in the data set on A549 was 1.2e-06 M l-1; with MCF7, 2.4e-07 M l-1; in the data set on Malme-3M, 1e-06 M l-1; in the data set with SK-MEL-5, 9.6e-07 M l-1. This compound gave an inhibition in vivo at 3 mg/kg with Mus musculus [1] of 0%. The same compound displayed an inhibition in vivo at 10 mg/kg in the data set on Mus musculus [2] of 0%. For the same compound, the CC50 in data set [3] is 500 nM; in [4] it was 2100 nM; in data set [5], 500 nM; in data set [6] it was 1400 nM; in data set [11] it was 1800 nM. Moreover, the Toxic deaths in [7] and in data set [8] was 0 throughout. In addition, the Ratio in data set [9] was 0.6; in [10] it was 0.8.
For the compound `C=C(CN1C(=O)OC2CCC(C(C)(C)C)CC21)S(C)(=O)=O` (stereo not given), the ED50 with A549 was determined as 2.9e-05 M l-1; with MCF7, 2.7e-06 M l-1; in the data set with Malme-3M it was 1.1e-05 M l-1; in the data set on SK-MEL-5 it was 1.3e-06 M l-1. The compound also came in with an inhibition in vivo at 33 mg/kg with Mus musculus [12] of 0%. The CC50 in data set [3] worked out at 3100 nM; in data set [4], 4700 nM; in [5] it was 2600 nM; in [6] it was 4400 nM; in data set [11], 5000 nM. The Toxic deaths amounted to 1 in data set [13] and 0 in data set [14]. In addition, the Ratio is 0.9 in [9], 1.7 in data set [15], 0.9 in [10] and 1.4 in data set [16]. For the same compound, the inhibition in vivo at 100 mg/kg in the data set on Mus musculus [17] came to 0%.
In the case of `C=C(CNC1CC(C(C)(C)C)CCC1O)S(C)(=O)=O` (stereo not given), the ED50 with A549 was 6.7e-07 M l-1; in the data set on MCF7, 4.7e-07 M l-1; in the data set on Malme-3M, 6e-07 M l-1; in the data set with SK-MEL-5 it was 1.9e-07 M l-1.
Consider `CC(C)(C)C1CCC(O)C(N)C1` (stereo not given), for which the ED50 with A549 is 0.00016 M l-1; in the data set with HT-29, above 100000 nM; with MCF7, 0.00026 M l-1; in the data set with Malme-3M it was above 100000 nM; in the data set on SK-MEL-5 it was 0.00045 M l-1.
In the case of `C=C(CN(CC(=C)S(C)(=O)=O)C1CC(C(C)(C)C)CCC1O)S(C)(=O)=O` (stereo not given), the ED50 with A549 is 1.3e-06 M l-1; in the data set with MCF7, 3.3e-07 M l-1; in the data set on Malme-3M it was 4.2e-06 M l-1; in the data set with SK-MEL-5 it was 4.6e-07 M l-1. The inhibition in vivo at 11 mg/kg in the data set on Mus musculus [18] was found to be 0%. This compound showed an inhibition in vivo at 33 mg/kg in the data set on Mus musculus [12] of 0%. For the same compound, the CC50 in data set [3] amounted to 800 nM; in data set [4] it was 2500 nM; in [5], 600 nM; in data set [6], 2400 nM; in data set [11] it was 1400 nM. Further, the Toxic deaths in [19] and in data set [14] was 0 in each case. Further, the figures for the selectivity ratio in [20] and in data set [21] were 1 and 0.6, respectively.
For the compound `C=C(CN(C)C1CC(C(C)(C)C)CCC1O)S(C)(=O)=O` (stereo not given), the ED50 in the data set on A549 came to 1.4e-05 M l-1; in the data set with MCF7 it was 1.7e-07 M l-1; in the data set on Malme-3M it was 4.8e-07 M l-1; in the data set with SK-MEL-5 it was 5.6e-07 M l-1.
With `C=C(CCl)S(C)(=O)=O`, the ED50 with A549 is listed as 1.9e-05 M l-1; in the data set with HT-29 it was 2.2e-06 M l-1; in the data set with MCF7, 6.5e-06 M l-1; in the data set on Malme-3M, 6.5e-06 M l-1; with SK-MEL-5, 3.2e-06 M l-1.

Source of the values: ChEMBL document CHEMBL1127922, “Synthesis and pharmacological evaluation of vinyl sulfone based anticancer agents” (Bioorg Med Chem Lett, 1994).
